Four molecules from US9113629B2, “4-amino-6-(4-substituted-phenyl)-picolinates and 6-amino-2-(4-substituted-phenyl)-pyrimidine-4-carboxylates and their use as herbicides” (DOW AGROSCIENCES LLC, priority 2013, dated 2015) can be followed below.

Structures are written as SMILES. Read-outs that look alike come from different tables or passages of the source.

The test system of data set [1] is Key Grass and Sedge Weeds as well as Grass Crops. Nature of the data set: Post-emergent Test II herbicidal activity (Table 6). It is filed as in vivo. Particulars: post-emergence, 336 h; for pest or weed control at 140 g/ha: application rate 140 g ai/ha; for pest or weed control at 70 g/ha: application rate 70 g ai/ha. The method, then:
(§1) Post-emergent Test II: Seeds or nutlets of the desired test plant species were planted in Sun Gro Metro-Mix® 360 planting mixture, which typically has a pH of 6.0 to 6.8 and an organic matter content of about 30 percent, in plastic pots with a surface area of 64 square centimeters. When required to ensure good germination and healthy plants, a fungicide treatment and/or other chemical or physical treatment was applied. The plants were grown for 7-21 d in a greenhouse with an approximate 15 h photoperiod which was maintained at about 23-29° C. during the day and 22-28° C. during the night. Nutrients and water were added on a regular basis and supplemental lighting was provided with overhead metal halide 1000-Watt lamps as necessary. The plants were employed for testing when they reached the first or second true leaf stage.
(§2) A weighed amount, determined by the highest rate to be tested, of each test compound was placed in a 25 mL glass vial and was dissolved in 4 mL of a 97:3 v/v mixture of acetone and DMSO to obtain concentrated stock solutions. […] The concentrated stock solutions obtained were diluted with 20 mL of an aqueous mixture containing acetone, water, isopropyl alcohol, DMSO. Atplus 411F crop oil concentrate, and Triton® X-155 surfactant in a 48.5:39:10:1.5:1.0:0.02 v/v ratio to obtain spray solutions containing the highest application rates. Additional application rates were obtained by serial dilution of 12 mL of the high rate solution into a solution containing 2 mL of 97:3 v/v mixture of acetone and DMSO and 10 mL of an aqueous mixture containing acetone, water, isopropyl alcohol, DMSO, Atplus 411F crop oil concentrate, and Triton X-155 surfactant in a 48.5:39:10:1.5:1.0:0.02 v/v ratio to obtain ½×, ¼×, ⅛× and 1/16× rates of the high rate. Compound requirements are based upon a 12 mL application volume at a rate of 187 liters per hectare (L/ha). Formulated compounds were applied to the plant material with an overhead Mandel track sprayer equipped with 8002E nozzles calibrated to deliver 187 L/ha over an application area of 0.503 square meters at a spray height of 18 inches (43 cm) above the average plant canopy height. Control plants were sprayed in the same manner with the solvent blank.
(§3) The treated plants and control plants were placed in a greenhouse as described above and watered by subirrigation to prevent wash-off of the test compounds. After 14 d, the condition of the test plants as compared with that of the untreated plants was determined visually and scored on a scale of 0 to 100 percent where 0 corresponds to no injury and 100 corresponds to complete kill.

Data set [2] has as its system Key Broadleaf Weed and Crop Species. The data set is described as follows: Post-emergent Test II herbicidal activity (Table 5). It counts as in vivo. The note with it: post-emergence, 336 h, post-emergent, 14 days after application; for pest or weed control at 140 g/ha: 140 g ai/ha; for pest or weed control at 70 g/ha: 70 g ai/ha. The method, then:
as §1, §2, §3

The mark [3] stands for this setting: Triticum aestivum, TRZSS (wheat), read-out: Visual Growth Reduction (%) 14 Days After Application, TRZSS.
Setting [4] is: CYPES: yellow nutsedge (Cyperus esculentus), read-out: Visual Growth Reduction (%) 14 Days After Application, CYPES.
Where [5] appears, read: DIGSA: crabgrass (Digitaria sanguinalis), read-out: Visual Growth Reduction (%) 14 Days After Application, DIGSA.
[6] abbreviates: ECHCG: barnyardgrass (Echinochloa crus-galli), read-out: Visual Growth Reduction (%) 14 Days After Application, ECHCG.
Setting [7] is: ORYSA: rice (Oryza sativa), read-out: Visual Growth Reduction (%) 14 Days After Application, ORYSA.
Setting [8] is: SETFA: giant foxtail (Setaria faberi), read-out: Visual Growth Reduction (%) 14 Days After Application, SETFA.
Setting [9] is: SORVU: grain sorghum (Sorghum vulgare), read-out: Visual Growth Reduction (%) 14 Days After Application, SORVU.
Where [10] appears, read: ZEAMX: maize, corn (Zea mays), read-out: Visual Growth Reduction (%) 14 Days After Application, ZEAMX.
[11] abbreviates: ABUTH: velvetleaf (Abutilon theophrasti), read-out: Visual Growth Reduction (%) 14 Days After Application ABUTH.
The mark [12] stands for this setting: AMARE: redroot pigweed (Amaranthus retroflexus), read-out: Visual Growth Reduction (%) 14 Days After Application AMARE.
Where [13] appears, read: BRSNN: oilseed-rape, canola (Brassica napus), read-out: Visual Growth Reduction (%) 14 Days After Application BRSNN.
The mark [14] stands for this setting: CHEAL: lambsquarters (Chenopodium album), read-out: Visual Growth Reduction (%) 14 Days After Application CHEAL.
[15] abbreviates: EPHHL: wild poinsettia (Euphorbia heterophylla), read-out: Visual Growth Reduction (%) 14 Days After Application EPHHL.
[16] abbreviates: HELAN: sunflower (Helianthus annuus), read-out: Visual Growth Reduction (%) 14 Days After Application HELAN.
Where [17] appears, read: VIOTR: wild pansy (Viola tricolor), read-out: Visual Growth Reduction (%) 14 Days After Application VIOTR.
Setting [18] is: TRZSS (wheat, Triticum aestivum), read-out: Visual Growth Reduction (%) 14 Days After Application, TRZSS.

Turning to `Nc1c(Cl)c(C(=O)O)nc(-c2ccc(OC(F)F)cc2)c1Cl` [Compound 33], the melting point lay in the range of 146.3 to 147.6 °C. In addition, in data set [1] (setting [3]), the pest or weed control at 140 g/ha lay within 0 to 29%. Moreover, the pest or weed control at 140 g/ha in data set [1] (setting [4]) was 0 to 29%. In data set [1] (setting [5]), the pest or weed control at 140 g/ha was in the range of 0 to 29%. In addition, in data set [1] (setting [6]), the pest or weed control at 140 g/ha was in the range of 0 to 29%. Moreover, the pest or weed control at 140 g/ha in data set [1] (setting [7]) was in the range of 0 to 29%. In addition, in data set [1] (setting [8]), the pest or weed control at 140 g/ha was 0 to 29%. Besides, the pest or weed control at 140 g/ha in data set [1] (setting [9]) is 0 to 29%. The pest or weed control at 140 g/ha in data set [1] (setting [10]) is 0 to 29%. Besides, the pest or weed control at 140 g/ha in data set [2] (setting [11]) was in the range of 60 to 74%. Besides, in data set [2] (setting [12]), the pest or weed control at 140 g/ha fell in the range of 0 to 29%. Moreover, the pest or weed control at 140 g/ha in data set [2] (setting [13]) is 30 to 44%. In addition, the pest or weed control at 140 g/ha in data set [2] (setting [14]) lay in the range of 0 to 29%. Further, the pest or weed control at 140 g/ha in data set [2] (setting [15]) fell in the range of 0 to 29%. Also, the pest or weed control at 140 g/ha in data set [2] (setting [16]) was in the range of 95 to 100%. For the same molecule, the pest or weed control at 140 g/ha in data set [2] (setting [17]) lay within 0 to 29%.

As to `C#Cc1ccc(-c2cc(N)c(Cl)c(C(=O)O)n2)cc1` [Compound 48], the melting point is 204.2 to 205.9 °C. Besides, the pest or weed control at 140 g/ha in data set [1] (setting [3]) lay within 30 to 44%. For the same molecule, the pest or weed control at 140 g/ha in data set [1] (setting [4]) fell in the range of 0 to 29%. Also, in data set [1] (setting [5]), the pest or weed control at 140 g/ha fell in the range of 60 to 74%. For the same molecule, the pest or weed control at 140 g/ha in data set [1] (setting [6]) fell in the range of 75 to 84%. Also, the pest or weed control at 140 g/ha in data set [1] (setting [7]) was in the range of 0 to 29%. The pest or weed control at 140 g/ha in data set [1] (setting [8]) was in the range of 0 to 29%. The pest or weed control at 140 g/ha in data set [1] (setting [9]) was in the range of 0 to 29%. Besides, the pest or weed control at 140 g/ha in data set [1] (setting [10]) is 0 to 29%. Further, the pest or weed control at 140 g/ha in data set [2] (setting [11]) was in the range of 95 to 100%. For the same molecule, the pest or weed control at 140 g/ha in data set [2] (setting [12]) was 95 to 100%. The pest or weed control at 140 g/ha in data set [2] (setting [13]) fell in the range of 85 to 94%. Moreover, in data set [2] (setting [14]), the pest or weed control at 140 g/ha was in the range of 85 to 94%. Moreover, the pest or weed control at 140 g/ha in data set [2] (setting [15]) was 95 to 100%. In data set [2] (setting [16]), the pest or weed control at 140 g/ha lay in the range of 95 to 100%. For the same molecule, the pest or weed control at 140 g/ha in data set [2] (setting [17]) lay in the range of 0 to 29%.

On to `COC(=O)c1nc(-c2ccc(Br)cc2)c(C)c(N)c1Cl` [Compound 81, methyl 4-amino-6-(4-bromophenyl)-3-chloro-5-methylpicolinate], for which the melting point was in the range of 128 to 130 °C. The pest or weed control at 140 g/ha in data set [1] (setting [3]) was 45 to 59%. The pest or weed control at 140 g/ha in data set [1] (setting [4]) lay in the range of 0 to 29%. The pest or weed control at 140 g/ha in data set [1] (setting [5]) is 45 to 59%. Also, in data set [1] (setting [6]), the pest or weed control at 140 g/ha was in the range of 0 to 29%. In data set [1] (setting [7]), the pest or weed control at 140 g/ha was in the range of 0 to 29%. Moreover, the pest or weed control at 140 g/ha in data set [1] (setting [8]) is 60 to 74%. In addition, the pest or weed control at 140 g/ha in data set [1] (setting [9]) was in the range of 75 to 84%. In addition, the pest or weed control at 140 g/ha in data set [1] (setting [10]) was 75 to 84%. For the same molecule, the pest or weed control at 140 g/ha in data set [2] (setting [11]) was in the range of 95 to 100%. For the same molecule, the pest or weed control at 140 g/ha in data set [2] (setting [12]) lay in the range of 95 to 100%. Further, in data set [2] (setting [13]), the pest or weed control at 140 g/ha fell in the range of 60 to 74%. Also, the pest or weed control at 140 g/ha in data set [2] (setting [14]) lay within 95 to 100%. Besides, the pest or weed control at 140 g/ha in data set [2] (setting [15]) lay within 75 to 84%. The pest or weed control at 140 g/ha in data set [2] (setting [16]) lay within 95 to 100%. In addition, the pest or weed control at 140 g/ha in data set [2] (setting [17]) fell in the range of 0 to 29%.

Regarding `Cc1c(-c2ccc(I)c(F)c2)nc(C(=O)O)c(Cl)c1N` [Compound 87, 4-Amino-3-chloro-6-(3-fluoro-4-iodophenyl)-5-methylpicolinic acid], the melting point was in the range of 171 to 172 °C. In data set [1] (setting [4]), the pest or weed control at 70 g/ha was 0 to 29% and the pest or weed control at 140 g/ha fell in the range of 45 to 59%. Further, in data set [1] (setting [5]), the pest or weed control at 70 g/ha lay within 60 to 74% and the pest or weed control at 140 g/ha lay in the range of 60 to 74%. For the same molecule, in data set [1] (setting [6]), the pest or weed control at 70 g/ha fell in the range of 75 to 84% and the pest or weed control at 140 g/ha lay within 75 to 84%. Further, in data set [1] (setting [7]), the pest or weed control at 70 g/ha lay in the range of 0 to 29% and the pest or weed control at 140 g/ha lay within 0 to 29%. In data set [1] (setting [8]), the pest or weed control at 70 g/ha is 60 to 74% and the pest or weed control at 140 g/ha lay within 75 to 84%. Moreover, in data set [1] (setting [9]), the pest or weed control at 70 g/ha lay in the range of 60 to 74% and the pest or weed control at 140 g/ha lay in the range of 60 to 74%. Also, in data set [1] (setting [18]), the pest or weed control at 70 g/ha was 60 to 74% and the pest or weed control at 140 g/ha is 60 to 74%. Besides, in data set [1] (setting [10]), the pest or weed control at 70 g/ha was 60 to 74% and the pest or weed control at 140 g/ha lay within 60 to 74%. Besides, in data set [2] (setting [11]), the pest or weed control at 70 g/ha was in the range of 85 to 94% and the pest or weed control at 140 g/ha fell in the range of 85 to 94%. Besides, in data set [2] (setting [13]), the pest or weed control at 70 g/ha is 95 to 100% and the pest or weed control at 140 g/ha is 95 to 100%. For the same molecule, in data set [2] (setting [14]), the pest or weed control at 70 g/ha was 85 to 94% and the pest or weed control at 140 g/ha lay in the range of 85 to 94%. In addition, in data set [2] (setting [15]), the pest or weed control at 70 g/ha lay in the range of 0 to 29% and the pest or weed control at 140 g/ha was in the range of 0 to 29%. Moreover, in data set [2] (setting [16]), the pest or weed control at 70 g/ha lay within 85 to 94% and the pest or weed control at 140 g/ha is 85 to 94%. For the same molecule, in data set [2] (setting [17]), the pest or weed control at 70 g/ha fell in the range of 60 to 74% and the pest or weed control at 140 g/ha lay in the range of 85 to 94%.
